Results reported in US10047063B2, “Method for improving the oxygen-releasing ability of hemoglobin to organs or peripheral tissues in human bodies and a medication thereof” (NATIONAL SUN YAT-SEN UNIVERSITY, priority 2014, dated 2018).

How the values were obtained:
Assay type in all cases: biochemical
[1] = biological target: T1, hemoglobin (Homo sapiens, UniProt P68871+P69905); assay: Oxygen equilibrium curve (OEC) measurement, P50 of treated hemoglobin
Text: FIG. 4a is a diagram illustrating the oxygen equilibrium curve (OEC) of hemoglobin treated with 2,3-bisphosphoglycerate with a molar ratio to Hb of 1.0 (dash black curve). The OEC of pure hemoglobin (solid black curve) is also shown as the reference. The P50 value derived from the OEC for pure hemoglobin and for Hb treated with 2,3-bisphosphoglycerate are 12.6 and 16.4±1 mmHg, respectively.
To evaluate the effect of the compound of phthalides on reducing the oxygen affinity and thus promoting the oxygen release, the oxygen equilibrium curves (OEC) for hemoglobin treated with 2,3-bisphosphoglycerate (solid black curve in FIG. 4a) and Z-butylidenephthalide (Z-butylidenephthalide-to-Hb molar ratio of: 0.2, solid black curve; 0.5, dash-dot black curve; 0.8, dot black curve in FIG. 4b), are measured in comparison with that of pure hemoglobin (dash black curves in FIGS. 4a and 4b).
From the oxygen equilibrium measurements, the P50 values of hemoglobin treated compounds, including Z-butylidenephthalide, Z-ligustilide and senkyunolide A are obtained, as shown in FIGS. 5a to 5c. P50, defined as the oxygen partial pressure required for 50% of Hb to become oxygenated or deoxygenated, is a direct measure of oxygen affinity for hemoglobin, which increases with decreasing oxygen affinity.

[2] = biological target: fetal hemoglobin (α2γ2, HbF) (Homo sapiens, UniProt P69905); assay: Resonance Raman spectroscopy: percentage of "R" state of oxygenated fetal hemoglobin treated with compounds; details: oxygen atmosphere
Sequence of fetal hemoglobin (α2γ2, HbF) (P69905 2-142 limits assumed): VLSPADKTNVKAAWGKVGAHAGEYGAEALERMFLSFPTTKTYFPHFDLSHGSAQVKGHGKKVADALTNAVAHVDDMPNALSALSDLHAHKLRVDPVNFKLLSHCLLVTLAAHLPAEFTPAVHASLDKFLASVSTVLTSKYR
Sequence of fetal hemoglobin (α2γ2, HbF) (P69892 2-147 partner limits assumed): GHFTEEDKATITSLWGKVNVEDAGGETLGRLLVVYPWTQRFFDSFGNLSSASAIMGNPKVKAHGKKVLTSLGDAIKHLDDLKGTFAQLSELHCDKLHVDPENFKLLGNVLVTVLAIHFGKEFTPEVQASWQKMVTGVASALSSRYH
Text: In order to evaluate the effect of the compound of phthalides on stabilizing the oxygenated hemoglobin variants in the low oxygen affinity “T” state, compounds including 2,3-bisphosphoglycerate (group A0), Z-butylidenephthalide (group A1), Z-ligustilide (group A2), senkyunolide A (group A3), senkyunolide H (group A4) and senkyunolide I (group A5) are mixed with fetal hemoglobin (α2γ2, HbF) as a representative hemoglobin variant which is also a potential hemoglobin-based blood substitute, followed by the resonance Raman spectroscopy measurements under the oxygen atmosphere. The percentages of the high oxygen affinity “R” state of fetal hemoglobin treated with 2,3-bisphosphoglycerate (shown in FIG. 3a) and various phthalide phyto-compounds (shown in FIGS. 3b to 3f) are also analyzed from the resonance Raman spectroscopy measurements, following the same spectral analysis procedures as that of normal hemoglobin.

[3] = biological target: T1, hemoglobin; assay: Resonance Raman spectroscopy: percentage of high oxygen affinity "R" state of oxygenated hemoglobin treated with compounds; details: varying mole ratio to Hb tetramer, 532 nm excitation, oxygen atmosphere
Text: In order to evaluate the effect of the compound of Formula I on stabilizing the oxygenated hemoglobin in the low oxygen affinity “T” state, compounds including 2,3-bisphosphoglycerate (group A0), Z-butylidenephthalide (group A1), Z-ligustilide (group A2), senkyunolide A (group A3), senkyunolide H (group A4) and senkyunolide I (group A5) are mixed with hemoglobin as a function of their mole ratio to hemoglobin, followed by the resonance Raman spectroscopy measurements at 532 nm excitation wavelength under the oxygen atmosphere. The percentages of the high oxygen affinity “R” state for hemoglobin treated with 2,3-bisphosphoglycerate (shown in FIG. 2a, as reference) and various phthalide phyto-compounds (shown in FIGS. 2b to 2f) are analyzed from the resonance Raman spectroscopy measurements. In more specific, the percentage of high oxygen affinity “R” state for each treated hemoglobin was obtained by fitting a simulated spectrum comprised of adjustable weighing factors of the T and R states of pure hemoglobin to the obtained resonance Raman spectrum of treated hemoglobin. […]

[4] = effector-to-Hb mole ratio of 0.8 (Level II), pure hemoglobin 12.6±1

T1 sequence (P69905 2-142 limits assumed): as the sequence (P69905 2-142 limits assumed) above
T1 sequence (P68871 2-147 limits assumed): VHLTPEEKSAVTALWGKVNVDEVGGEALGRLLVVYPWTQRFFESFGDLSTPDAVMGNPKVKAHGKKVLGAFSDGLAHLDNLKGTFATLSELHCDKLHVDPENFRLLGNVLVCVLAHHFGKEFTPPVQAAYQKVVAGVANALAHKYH

Structure (SMILES)	P50 of hemoglobin treated with compound [1, 4] [mmHg]	effect on relative ratio of high oxygen affinity "R" state of fetal hemoglobin [2]	"R" state suppression efficiency [3]	P50 of hemoglobin treated with compound ([1]; molar ratio to Hb of 1.0, pure hemoglobin 12.6) [mmHg]
CCC/C=C1\OC(=O)C2=C1CC[C@@H](O)[C@@H]2O [senkyunolide I]	15.2±1	can stabilize the low oxygen affinity “T” state	–	–
O=C(O)C(COP(=O)(O)O)OP(=O)(O)O (centres unmarked) [2,3-bisphosphoglycerate, reference compound]	–	no effect	about 20%	16.4±1
CCC/C=C1\OC(=O)C2=C1CC[C@@H](O)[C@H]2O [senkyunolide H]	–	can stabilize the low oxygen affinity “T” state	–	–
CCC/C=C1\OC(=O)C2=C1CCC=C2 [Z-ligustilide]	15.9	can stabilize the low oxygen affinity “T” state	–	–
CCCC[C@@H]1OC(=O)C2=C1CCC=C2 [senkyunolide A]	–	can stabilize the low oxygen affinity “T” state	–	–
CCC/C=C1\OC(=O)c2ccccc21 [Z-butylidenephthalide]	17.4	can stabilize the low oxygen affinity “T” state	–	–
